From patent US20110165173A1, “THERAPEUTIC AGENT AND DETECTION REAGENT FOR ARTERIOSCLEROTIC DISEASE WHICH TARGETS FOR SALUSIN” (PROTEINEXPRESS CO., LTD., priority 2007, published 2011)

Columns and labels:
[1] = system: ACAT-1 protein expression; assay: ACAT-1 protein expression in human monocyte-derived macrophages during differentiation (Western blotting); assay type: cell-based; conditions: for ACAT-1 protein expression vs control cells: 0.6 nM
Description: In the Examples below, monocytes were prepared from human peripheral blood and cultured for 7 days so as to have differentiated into macrophages. At such time, salusin-α (0 to 10 nM) and salusin-β (0 to 10 nM) were simultaneously added thereto, and the effects of salusin were examined.
Culture of monocytes obtained from human peripheral blood was performed by a known method. Isolated monocytes were cultured with the addition of RPMI-1640 (15 mL) and then the floating monocytes were subjected to cell counting with a blood cell counting chamber. The cells were seeded on a 6-cm dish so as to result in 4×10^6 cells/2 mL. The monocytes were kept warm at 37° C. in the presence of 5% CO2 for 1 hour such that the cells were allowed to adhere to the dish. The medium was substituted with RPMI-1640 containing 10% human serum, followed by culture for 7 days. The medium was changed every 3 days.
ACAT-1 is an endoplasmic reticulum enzyme that converts intracellular free cholesterol into cholesterol ester. The ACAT-1 gene is important for foaming of macrophages. In order to examine effects of salusin-α and salusin-β on the ACAT-1 expression, the ACAT-1 protein expression was examined by Western blotting.
Monocyte-derived macrophages that had been cultured for 7 days were washed with PBS 3 times, followed by solubilization with the addition of 10% SDS (sodium dodecyl sulfate) (100 μL) to each dish. Each cell extraction solution was scooped up with a cell scraper, followed by pulverization with the use of a 1-mL TERUMO syringe and a 23-G injection needle for fragmentation (shearing). The resultant was centrifuged at 15,000 rpm for 3 minutes (Himac CF15D2 high-speed micro refrigerated centrifuge; Hitach, Ltd.). The supernatant protein concentration was assayed by the bicinchoninic acid (BCA) method (Pierce) and used as a cell extraction solution for Western blotting.
For ACAT-1 protein detection, an anti-human ACAT-1 polyclonal antibody (DM10 donated from Dr. Chang, Dartmouth Medical School) [Chang CCY et al., J Biol Chem. 1995; 270: 29532-29540] prepared by immunizing a rabbit was used as a primary antibody (final concentration: 0.5 μg/mL) for a reaction on a transfer membrane at room temperature for 1 hour. The transfer membrane was washed with PBS-0.1% Tween 20, followed by a reaction with a secondary antibody (anti-rabbit IgG antibody: anti-rabbit IgG donkey antibody conjugated with horseradish peroxidase (HRP) (GE Healthcare Bio-Science)) at room temperature for 1 hour. For a secondary antibody, a stock solution (0.5 μL) was diluted 10,000-fold with PBS-0.1% Tween 20 (5 mL), and the resultant was used. Washing was carried out with PBS-0.1% Tween 20, followed by ACAT-1 protein detection with the use of Lumi-Light Plus (PerkinElmer Life Sciences).
Human peripheral blood monocytes (4×10^6 cells/6-cm dish) were cultured for 7 days in an RPMI-1640 medium (2 mL) containing 10% human serum so as to differentiate into macrophages. In order to examine the salusin dose-dependent effects on the ACAT-1 protein expression, salusin-α or salusin-β was added to the medium at a concentration of 0, 0.2, 0.4, 0.6, 0.8, or 1.0 nM at the beginning of culture. On Day 7 of culture, macrophage cells differentiated from monocytes were washed with PBS and then solubilized in 10% SDS (100 μL), followed by Western blotting with the use of an ACAT-1-specific antibody. […]

apoE-deficient mice = assay: Arteriosclerotic lesions of aorta in apoE-deficient mice under continuous subcutaneous administration (oil red O staining); assay type: in vivo; conditions: 0.6 nmol/kg/h continuous subcutaneous
Description: Effects of continuous administration of salusin-α and salusin-β on arteriosclerosis were examined with the use of apoE-deficient mice as arteriosclerosis animal models. Herein, antiserum effects of salusin-α or salusin-β were also examined. In addition to examination of arteriosclerotic lesions, foaming of macrophages, which is important for formation of arteriosclerosis primary lesions, was focused on and cholesterol ester accumulation caused by oxidized LDL was assayed. Expression analysis was carried out for scavenger receptors (CD36 and SR-A) capable of recognizing oxidized LDL, an intracellular cholesterol esterification enzyme (acyl-CoA) (cholesterol acyltransferase 1 (ACAT1)), and ATP-binding cassette transporter A1 (ABCA1), ABCG1, and SR-BI, which are involved in the mechanism of extracellular transportation of excessive intracellular free cholesterol (cholesterol efflux).
The above animal experiments were carried out in accordance with the experimental practice guidelines established by Showa University (Japan). All the apoE-deficient mice used for this study were purchased from the Jackson Laboratory (Bar Harbor, Me., U.S.A.).
(§1) 13-week-old male apoE-deficient mice (72 mice) were divided into the following 6 groups: (i) physiological salt saline (control); (ii) salusin-α (0.6 nmol/kg/h); (iii) salusin-β (0.6 nmol/kg/h); (iv) salusin-α (0.6 nmol/kg/h)+anti-salusin-α serum (1.4 μg/kg/h); (v) salusin-β (0.6 nmol/kg/h)+anti-salusin-β serum (1.4 μg/kg/h); and (vi) anti-salusin-β serum (1.4 μg/kg/h). The mice were subjected to continuous subcutaneous administration with the use of an osmotic mini-pump for 4 to 8 weeks. The osmotic mini-pump and the solution contained therein were changed every week.
Mice ingesting a normal diet were subjected to experiments. The following parameters were assayed.
Each collected aorta was cut in the longitudinal direction, followed by oil red O staining for examination of the surface area of each atherosclerosis lesion with lipid pigmentation. Adobe Photoshop (Adobe System Inc., San Jose, Calif., U.S.A.) was used for identification of arteriosclerotic lesions, followed by analysis using NIH Scion Image (Scion Corp., Frederick, Md., U.S.A.) for quantification of the surface area of each lesion. In addition, cross-sections of the vicinity of the aorta (immediately below the aortic valve) were prepared, followed by oil red O staining for detailed analysis of arteriosclerotic lesions.

ACAT1 = ACAT1 expression by macrophages of treated apoE-deficient mice (Western blotting); assay type: in vivo; conditions: four weeks, P<0.05
Description: as §1
Macrophages were collected as in the experiment in (1), and the protein expression of the gene involved in foaming of macrophages (i.e., scavenger receptors CD36 and SR-A capable of recognizing oxidized LDL, intracellular cholesterol esterification enzyme ACAT1, and ABCA1, ABCG1, and SR-BI, which are involved in cholesterol efflux) was analyzed by Western blotting. For the internal standard of the macrophage function, β-actin expression was also examined. For quantification of the band concentration, Analyzer (ATTO Corporation, Tokyo) was used.

Row | Substance | inhibition of ACAT-1 protein expression ([1]; 0 to 1.0 nM added at beginning of 7-day culture, concentration-dependent) | ACAT-1 protein expression vs control cells ([1]; Day 1, 3, or 5 after seeding) | ACAT-1 protein expression vs control cells ([1]; Day 7) | arteriosclerotic lesion surface area (apoE-deficient mice; eight weeks) | plaque formation (apoE-deficient mice; eight weeks) | ACAT1 protein expression relative to initial level (ACAT1; salusin-α 0.6 nmol/kg/h) | ACAT-1 protein expression level relative to control ([1]; 0.6 nM (peak level), added at beginning of 7-day culture, attenuated above 0.6 nM) [times] | ACAT-1 protein expression vs control cells ([1]; Day 5 or later) | proximal aorta cross-sections, oil red O staining, compared with control group (apoE-deficient mice; four weeks) | mean arteriosclerotic lesion surface area of the aortic arch relative to control group (apoE-deficient mice; four weeks, P<0.005) | ACAT1 protein expression relative to control level (ACAT1; 0.6 nmol/kg/h, range given jointly for CD36, SR-A, ACAT1) [times]
1 | salusin-α: peptide (SEQ ID NO: 1) comprising 28 amino acid residues, generated by processing from preprosalusin (SGALPPAPAAPRPALRAQRAGPAGPGAK; listed as Homo sapiens) | approximately 40% | not found to significantly differ | significantly inhibited | reduced to less than half | obvious plaque formation was not observed | approximately half |  |  |  |  | 
2 | salusin-β: peptide (SEQ ID NO: 3) comprising 20 amino acid residues, generated by processing from preprosalusin (AIFIFIRWLLKLGHHGRAPP; listed as Homo sapiens) [reference compound] |  |  |  |  |  |  | 2.1 | significantly increased | formation of atheroma stained red with oil red O and thickening of the blood vessel wall were observed | approximately 2.5 times | 1.5 to 2.8
